The values below come from patent US8642656B2, “Calixarene-based peptide conformation mimetics, methods of use, and methods of making” (priority 2004, dated 2014).

Molecules are shown by their SMILES. Some results are limits rather than exact numbers.

One series relates to endothelial cell (EC). In words: EC Proliferation Assay, [3H]thymidine incorporation (Example 36, Table 1). Format: cell-based. The settings on record: read-out: EC proliferation IC50 (conc). On the procedure: Human umbilical vein derived EC(HUVEC) were harvested from normal human umbilical cords by perfusion with 0.125% trypsin/EDTA as described in Groenewegen et al., J. Exp. Med. 164, 131-143 (1986). For determination of quiescent EC phenotype isolated ECs were immediately fixed in 1% paraformaldehyde. Human microvascular ECs (MVECs) were isolated. ECs were cultured in fibronectin coated tissue culture flasks in culture medium (RPMJ-1640 with 20% human serum (HS), supplemented with 2 mM glutamine and 100 U/ml penicillin and 0.1 mg/ml streptomycin).
EC proliferation was measured using a [^3H]thymidine incorporation assay. ECs were seeded at 5000 cells/well in flatbottomed tissue culture plates and grown for 3 days, in the absence or presence of regulators, in culture medium. During the last 6 hours of the assay, the culture was pulsed with 0.5μ Ci [methyl-^3H]thymidine/well.
In general terms: Incorporation of labelled thymidine or its analogues reports DNA synthesis.

Series [1] has as its system EC. The experiment in a line: EC % apoptosis (Table 1). Format: cell-based, human.
Series [2] has as its system EC. The experiment in a line: EC % total cell death (Table 1). The format is cell-based, human.
A further series has as its system Fibro. The experiment in a line: Other cells, Fibro (Table 1). Format: cell-based.
In a further series the test system is MA148. In words: Other cells, MA148 (Table 1). Format: cell-based, human.
For the next series, the system named is SCK. The experiment in a line: Other cells, SCK (Table 1). Format: cell-based.
The next series concerns E. coli J96. The experiment in a line: Bactericidal assay on J96. Format: cell-based. The settings on record: for IC50: read-out: Bacterial activity on J96 IC50 (conc). From the text:
Pseudomonas aeruginosa type 1 is a clinical, smooth strain isolate stereotyped by using the scheme of Homma et al., Japan. J. Exp. Med. 46, 329-336 (1976) and maintained in the lab by monthly transfer on blood agar plates. E. coli J96, IA2, and H5 are smooth strain, uropathogenic clinical isolates kindly maintained and provided by J. R. Johnson and described in Johnson et al., J. Infect. Disease 173, 920-926 (1996) for J96 and IA2 and in Johnson et al., J. Infect. Disease 173, 746-749 (1996) for H5. J5 is an E. coli rough strain initially referenced by G. R. Siber and discussed in Warren et al., Infect. Immunity 55, 1668-1673 (1987) and is analogous to the smooth strain E. coli 0111:B4 used in the BioWhittaker LAL endotoxin detection and quantitation kit described below. Gram-positive MN8 and MNHO are two patient isolates of Staphylococcus aureus, which were kindly provided by P. M. Schlievert and described in Bohach et al., Rev. Infect. Diseases 11, 75-82 (1989) for MNHO and in Schlievert et al., J. Infect. Diseases 147, 236-242 (1983) for MN8. All cultures are maintained on nutrient agar plates.
Pyrogen-free solutions were used throughout the assay. Log phase bacteria were obtained by transferring an overnight culture or scraping crystals off-85° C glycerol stocks of overnight cultures. Bacteria were washed and resuspended in 0.9% sodium chloride with adjustment to an optical density at 650 nm which yields 3×10^8 CFU/ml. Bacteria were then diluted 1:10 in 0.08 M citrate phosphate buffer, pH 7.0 (prepared by mixing 0.08 M citric acid with 0.08 M dibasic sodium phosphate). Bacteria (0.15 ml) were incubated with the test compound in a final volume of 1.0 ml of buffer. The assay was done in 17×100 polypropylene tubes in a reciprocal water bath shaker at 37° C for 30 minutes. Following this 30 minute (min) incubation. 10-fold dilutions were made in 0.9% sodium chloride. Dilutions were done to 10^−4 and 20 μl of each dilution was streaked across an agar plate. Gram-positive organisms were plated on nutrient agar plates containing 2% agar and Gram-negative organisms were plated on MacConkey agar (2%). Plates were incubated overnight at 37° C and counted the next morning. The dilution containing 10-100 bacteria was counted and the number multiplied by 50 to adjust all counts to the number bacteria killed per milliliter. Compound concentrations were converted to logarithm base ten and graphed. Bactericidal activity was determined by dose response where LD50 values were determined by best fits of a sigmoidal curve to the dose response data.

The nature of the next series: Hemolysis (Table 1). Format: cell-based.
The nature of another series: Solubility (Table 1). Format: physicochemical.
Series [3] has as its system LPS from E. coli serotype 0111:B4. In words: LPS neutralization assay (Limulus amoebocyte lysate, QCL-1000). Format: biochemical. The settings on record: Table 3; errors estimated ±30%; read-out: IC50 values (μM) for LPS binding, E. coli 0111:B4. An excerpt:
(§1) The ability of compounds to neutralize endotoxin was detected in vitro by using the chromogenic QCL-1000 kit from BioWhittaker, Inc. (Walkersville, Md.), and as described in their protocol. This Limulus amoebocyte lysate (LAL) assay is quantitative for Gram negative bacterial endotoxin (lipopolysaccharide, LPS). In this assay compounds that are active inhibit the LPS-mediated activation of a proenzyme whose active form would release p-nitroaniline (pNA) from a colorless synthetic substrate producing a yellow color (pNA) whose absorption is monitored spectrophotometrically at 405-410 nm. The initial rate of enzyme activation is proportional to the concentration of endotoxin present.
(§2) Variants of LPS from six Gram negative bacteria were used: E. coli serotypes 0111:B4 (Combrex, Walkersville, Md.) and 055:B5 (Sigma, St. Louis, Mo.); Klebsiella pneumoniae (List Biologies, San Jose, Calif.); Pseudomonas aeruginosa (List Biologies, San Jose, Calif.); Salmonella typhimurium (List Biologies, San Jose, Calif.), and Serratia marcascens (List Biologies, San Jose, Calif.). The concentration of compound required to neutralize a given LPS and therefore to inhibit the Limulus amoebocyte lysate driven by 0.04 units of any given LPS was determined by dose response curves fit by using a standard sigmoidal function to determined the JC50 value for each lopomimetic compound. The 0.04 units corresponds to 0.01 ng LPS from E. coli serotype 055:B5, 0.01 ng LPS from E. coli serotype 0111:B4, 0.003 ng LPS from K. pneumoniae, 0.01 ng LPS from P. aeruginosa, 0.03 ng LPS from S. typhimurium, and 0.03 ng LPS from S. marcascens.

Series [4] concerns LPS from E. coli serotype 055:B5. The series is described as above. Format: biochemical. The settings on record: Table 3; errors estimated ±30%; read-out: IC50 values (μM) for LPS binding, E. coli 055:B5.
Text: as §1, §2

A further series has as its system LPS from P. aeruginosa. Described as above. The settings on record: Table 3; errors estimated ±30%; read-out: IC50 values (μM) for LPS binding, P.a. Format: biochemical, Pseudomonas aeruginosa.
Text: as §1, §2

In the next series the test system is LPS from K. pneumoniae. Described as above. Format: biochemical, Klebsiella pneumoniae. The settings on record: Table 3; errors estimated ±30%; read-out: IC50 values (μM) for LPS binding, Klebsiella.
Text: as §1, §2

A further series deals with LPS from S. typhimurium. The description is as above. Format: biochemical, Salmonella typhimurium. The settings on record: Table 3; errors estimated ±30%; read-out: IC50 values (μM) for LPS binding, Salmonella.
Text: as §1, §2

The test system of a further series is LPS from S. marcascens. Described as above. The format is biochemical, Serratia marcascens. The settings on record: Table 3; errors estimated ±30%; read-out: IC50 values (μM) for LPS binding, Serratia.
Text: as §1, §2

Another series relates to bFGF-stimulated HUVEC. In words: EC proliferation, [3H]-thymidine incorporation, bFGF-stimulated HUVEC (Example 48). The format is cell-based, human. The settings on record: bFGF-stimulated HUVEC; highest dose tested 25 μM. The protocol:
Proliferation is expressed as mean counts per minute (cpm) of quadruplicate cultures in three independent experiments (±SEM). […] Human umbilical vein derived EC (HUVEC) were harvested from normal human umbilical cords by perfusion with 0.125% trypsin/EDTA. Harvested HUVECs were cultured in gelatin coated tissue culture flasks and subcultured 1:3 once a week in culture medium (RPM1-1640 with 20% human serum (HS), supplemented with 2 mM glutamine and 100 U/mL penicillin and 0.1 mg/mL streptomycin). Statistical analysis was performed by using the Student's t-test.

In another series the test system is fibroblasts. In words: Proliferation of fibroblasts (general cell toxicity check). Format: cell-based. The settings on record: read-out: concentration giving 50% growth inhibition, fibroblasts.
The subject of series [5] is MA148 human ovarian carcinoma. The experiment in a line: Proliferation of MA148 tumor cells. Format: cell-based. The settings on record: read-out: IC50 against MA148 tumor cells.
Another series deals with B16F10 tumor cells. In words: Proliferation of B16F10 tumor cells. Format: cell-based, murine. The settings on record: read-out: IC50 against B16F10 tumor cells.
The subject of another series is HUVEC. The experiment in a line: EC migration, wound healing assay. Format: cell-based, human. The settings on record: 25 μM. On the procedure:
EC migration was measured in the wound healing assay. HUVEC were cultured in triplicate on a 1-mg/ml fibronectin coat in a 24-well tissue culture plate. Cells were grown for 3 days until confluence. When confluent, a wound was made in the well, using a blunt glass pipette. The medium was replaced with medium containing 10 ng/ml bFGF with or without 25 μM compound and at 0, 2, 4, 6, and 8 hours, the wound width was measured at four different predefined places. Photographs were made using an inverted microscope and a Contax 167 MT 35 mm camera.

As for `CC(C)(C)c1cc2c(O)c(c1)Cc1cc(C(C)(C)C)cc(c1OCCNC(=N)N)Cc1cc(C(C)(C)C)cc(c1O)Cc1cc(C(C)(C)C)cc(c1OCCNC(=N)N)C2`, the IC50 was 8.3 µM in the series on endothelial cell (EC) and > 3.8 µM in the series on E. coli J96. In addition, in the series on EC [1], the “EC % Apoptosis 25 μM” value is reported as “No effect”. The “EC % total cell death” value with EC [2] was found to be 65%. Further, the “Other cells 25 μM, Fibro” value in the series with Fibro turned out to be 100% 100% 100%. Further, in the series on MA148, the “Other cells 25 μM, MA148” value was determined as 100% 100% 100%. Besides, in the series with SCK, the “Other cells 25 μM, SCK” value was 100% 100% 100%. In “Hemolysis (Table 1)” (at 10^−6 M), the Hemolysis was 100% at 10^−6 M. Besides, the Solubility result in “Solubility (Table 1)” (DMSO/H2O (30/70%), at >80° C., no infl. of pH 2 + 11) is given as “DMSO/H2O (30/70%) up to 30 mg/ml at >80° C., no infl. of pH 2 + 11”.
`CCCc1cc2c(OCC(=O)NCCN(C)C)c(c1)Cc1cc(CCC)cc(c1OCC(=O)NCCN(C)C)Cc1cc(CCC)cc(c1OCC(=O)NCCN(C)C)Cc1cc(CCC)cc(c1OCC(=O)NCCN(C)C)C2` [Compound 11a]: the “bactericidal activity (in words)” value in the series with E. coli J96 (in the micromolar range (Table 1)) is reported as “reasonably good bactericidal activity”. Moreover, the IC50 in series [3] was > 5 µM; in [4], 4.4 µM; with LPS from P. aeruginosa, > 5 µM; with LPS from K. pneumoniae, 0.08 µM; in the series on LPS from S. typhimurium, 4.1 µM; with LPS from S. marcascens it was > 5 µM. In addition, the IC50 was > 25 µM in the series on bFGF-stimulated HUVEC, ~20 µM in the series with fibroblasts, 8 µM in [5] and 15 µM with B16F10 tumor cells. In addition, in the series on HUVEC, the “effect on EC migration, wound assay (in words)” value is reported as “ineffective”.
As for `CN(C)CCNC(=O)COc1c2cccc1Cc1cccc(c1OCC(=O)NCCN(C)C)Cc1cccc(c1OCC(=O)NCCN(C)C)Cc1cccc(c1OCC(=O)NCCN(C)C)C2` [drawing 7], the IC50 with endothelial cell (EC) is 2.5 µM; in the series with E. coli J96, > 3.8 µM. In the series with EC [1], the “EC % Apoptosis 25 μM” value is recorded as “No effect”. Besides, the “EC % total cell death” value with EC [2] was “No effect”. Besides, the “Other cells 25 μM, Fibro” value with Fibro is reported as 0%. Moreover, the “Other cells 25 μM, MA148” value in the series on MA148 was 80%. In addition, in the series on SCK, the “Other cells 25 μM, SCK” value came out at 40%. The Hemolysis entry in the series “Hemolysis (Table 1)” (at 10^−5 M) is reported as “None at 10^−5 M”. Besides, in the series “Solubility (Table 1)” (H2O, at pH <7.0, r.t.), the Solubility result is listed as “H2O up to 30 mg/ml at pH <7.0, r.t”.
